≈ marks a conversion by molar mass, not a printed value.
Columns and labels:
[1] = in vivo; conditions: mouse, oral administration, single dose, suspended in aqueous 0.5% CMC solution, male mice, observed for 14 days
Description: Acute toxicity (LD50) of a ketonitrile derivative of the present invention (Compound No. 4) was tested using male mice (Slc:ddY, 5 weeks old). To groups of each 5 mice, the compounds suspended in aqueous 0.5% CMC solution were forcibly dosed orally at a single time so that the final dosages of 707, 1,000, 1,414, and 2,000 mg/kg were attained. […] As a result, LD50 value under conditions of oral administration was estimated to be higher than 2,000 mg/kg. Thus, the compound was confirmed to be quite non-toxic.
To groups of each 5 mice, the compounds suspended in aqueous 0.5% CMC solution were forcibly dosed orally at a single time so that the final dosages of 500, 1,000, 1,500, and 2,000 mg/kg were attained. […] As a result, the LD50 value was estimated to be higher than 2,000 mg/kg. Thus, the compounds were confirmed to be quite non-toxic.

[2] = Absorption test, concentration of the compounds in serum by HPLC; assay type: in vivo; conditions: mouse, mice, 100 mg/kg body weight, oral administration, serum at 1, 3, 5 and 24 hours, read-out: time at which concentration in serum reached a maximum
Description: An absorption test was performed using ketonitrile derivatives of the present invention (Compound Nos. […] and 155) on mice by dosing the derivatives in amounts of 100 mg/kg body weight. One, three, five, and 24 hours after administration of the compounds, blood was harvested and serum was separated therefrom. The concentration of the compounds in serum was determined by HPLC. As a result, Compound No. 155 and Compound No. 101 reached a maximum in concentration after 1 hour and 3 hours of administration, respectively.

[3] = system: Staphylococcus aureus (209-P); assay: Antibacterial activity (IC), agar as in Example 8 (Example 15, Table 48); assay type: cell-based; conditions: 18 h
How it was run: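 Samples in DMSO, diluted with sterile water, incorporated into Mueller-Hinton agar at 1, 10 and 100 µg/ml final. Bacteria seeded at 10^6 CFU/ml and grown 18 h at 37°C. Inhibition read as turbidity; values reported as IC ranges rather than exact MICs.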

[4] = system: Streptococcus aureus (TI-1); assay: Antibacterial activity (IC), agar as in Example 8 (Example 16, Table 49); assay type: cell-based; conditions: 18 h
How it was run: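 Compound at final 100, 10 or 1 µg/ml in Mueller-Hinton agar, inoculated with […] aureus (TI-1) at 10^6 CFU/ml and cultured 37°C for 18 h. Inhibition read from medium turbidity; IC given as 100-10, 10-1 or ≤1 µg/ml ranges from 2-fold dilution.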

[5] = system: Pasteurella multocida (Kobe-6); assay: Antibacterial activity (IC), agar as in Example 8 (Example 17, Table 50); assay type: cell-based; conditions: 18 h, origin pig
How it was run: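 Agar dilution on Mueller-Hinton agar with compound at 100, 10 and 1 µg/ml, inoculated at 10^6 CFU/ml with pig-origin strain Kobe-6. After 18 h at 37 °C, IC scored from turbidity and reported as a band (≤100, ≤10, ≤1 µg/ml).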

[6] = system: Bordetella bronchiseptica (S1); assay: Antibacterial activity (IC), agar as in Example 8 (Example 18, Table 51); assay type: cell-based; conditions: 18 h
Description: (§1) The antibacterial action was evaluated by the inhibitory concentration (hereinafter abbreviated as IC) at which propagation of the bacteria cultured at 37°C for 18 hours was inhibited. Inhibition was determined by the turbidity of the medium. The expressions "IC≤100", "≤10", and "≤1" indicate that MIC-equivalent values obtained at the succesive […] dilution of the sample are 100-10 µg/ml, 10-1 µg/ml, and not more than 1 µg/ml, respectively. […] (In the subsequent Examples, the same rule applies correspondingly.) Table 39
(§2) A suitable amount of a sample was dissolved in dimethylsulfoxide (DMSO), after which the resulting solution was diluted with the same amount of sterilized distilled water to prepare a bulk sample of 1,000 µg/ml. Separately, a bacterial liquid for the test (methicillin-resistant Staphylococcus aureus (MRSA) isolated from humans) which had been cultured in Mueller-Hinton broth (product of DIFCO) was prepared and inoculated to a Mueller-Hinton agar (product of DIFCO) containing the sample so that the final inoculation amount of 10^6 CFU/ml was achieved. The final concentrations of the samples were 100, 10, and 1 µg/ml.
(§3) After culturing at 37°C for 18 hours, the antibacterial activity was evaluated in terms of IC in a manner similar to that described in Example 4.
(§4) In a manner similar to that described in Example 8, antibacterial activity of the invention compound was determined. The bacterium used for the test was Bordetella bronchiseptica (S1) and Bordetella bronchiseptica (SM2-4).

[7] = system: Bordetella bronchiseptica (SM2-4); assay: as above; assay type: cell-based; conditions: 18 h
Description: as §1, §2, §3, §4

[8] = system: methicillin-resistant Staphylococcus aureus (MRSA) from humans; assay: Antibacterial activity (IC), agar as in Example 8 (Example 19, Table 52); assay type: cell-based; conditions: 18 h
How it was run: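 MRSA human isolate at 10^6 CFU/ml on Mueller-Hinton agar containing compound at 100, 10 or 1 µg/ml, grown 18 h at 37 °C. IC is the lowest tested level that inhibited growth, binned as ≤100, ≤10 or ≤1 µg/ml.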

[9] = system: Enterococcus from fish; assay: Antibacterial activity (IC), agar as in Example 8, media with 1.5% NaCl, 25°C (Example 20, Tables 53-55); assay type: cell-based; conditions: for MIC: Enterococcus Seriolicida SE94-002
How it was run: (§5)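 Growth inhibition was scored by turbidity after culture at 25°C, with IC bands set from 2-fold-dilution MIC-equivalents. Samples were tested at final 100, 10 and 1 µg/ml in Mueller-Hinton agar with 1.5% NaCl, seeded with 10^6 CFU/ml of the fish isolates.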

[10] = system: Pasteurella from fish; assay: as above; assay type: cell-based; conditions: for MIC: Pasteurella piscicida KP94-02
How it was run: as §5

[11] = Enterococcus Seriolicida KG86050
[12] = Enterococcus Seriolicida MS89060
[13] = Enterococcus Seriolicida MS89064
[14] = Enterococcus Seriolicida MS89066
[15] = Enterococcus Seriolicida MS89068
[16] = Enterococcus Seriolicida SE94-001
[17] = Enterococcus Seriolicida SE94-003
[18] = Enterococcus Seriolicida SE94-004
[19] = Enterococcus Seriolicida SE94-005

SMILES	MIC [3] [µg/mL]	MIC [4] [µg/mL]	MIC [5] [µg/mL]	MIC [6] [µg/mL]	MIC [7] [µg/mL]	MIC ([8]; MRSA strain 891179) [µg/mL]	MIC ([8]; MRSA strain 891185) [µg/mL]	MIC ([8]; MRSA strain 891187) [µg/mL]	MIC ([8]; MRSA strain 891192) [µg/mL]	MIC ([8]; MRSA strain 900048) [µg/mL]	MIC ([8]; MRSA strain 900056) [µg/mL]	IC ([9]; Enterococcus Seriolicida HI) [µg/mL]	IC [9, 11] [µg/mL]	IC [9, 12] [µg/mL]	IC [9, 13] [µg/mL]	IC [9, 14] [µg/mL]	IC [9, 15] [µg/mL]	IC [9, 16] [µg/mL]	MIC [9] [µg/mL]	IC [9, 17] [µg/mL]	also measured
CC(Oc1cc(Oc2ccc(C(F)(F)F)cc2Cl)ccc1Cl)C(=O)C(C#N)c1cccc(Br)c1 (centres unmarked) [Compound No. 155, 2-(3-bromophenyl)-4-[5-(2-chloro-4-trifluoromethylphenoxy)-2-chlorophenoxy]-3-oxopentanonitrile]	≤ 1	≤ 1	10 to 100 (≈ 17.4 to 174 µM)	10 to 100 (≈ 17.4 to 174 µM)	10 to 100 (≈ 17.4 to 174 µM)	≤ 1	≤ 1	≤ 1	≤ 1	≤ 1	≤ 1	≤ 1	≤ 1	≤ 1	≤ 1	≤ 1	≤ 1	≤ 1	≤ 1	≤ 1	LD50 at 336 h [1]: > 2000 mg/kg; Tmax [2]: 1 h; IC [9, 18]: ≤ 1 µg/mL; IC [9, 19]: ≤ 1 µg/mL; MIC [10]: 10 to 100 µg/mL (≈ 17.4 to 174 µM); IC ([10]; Pasteurella piscicida KP94-04): ≤100 (MIC-equivalent values obtained at the succesive 2-fold dilution of the sample are 100-10 µg/ml); IC ([10]; Pasteurella piscicida KP94-05): ≤100 (MIC-equivalent values obtained at the succesive 2-fold dilution of the sample are 100-10 µg/ml); IC ([10]; Pasteurella piscicida KP94-06): ≤100 (MIC-equivalent values obtained at the succesive 2-fold dilution of the sample are 100-10 µg/ml)
CC(Oc1cc(Cl)cc(Oc2ccc(C(F)(F)F)cc2Cl)c1)C(=O)C(C#N)c1ccc(Cl)c(Cl)c1 (centres unmarked) [compound 212]	≤ 1	≤ 1	1 to 10 (≈ 1.78 to 17.8 µM)	10 to 100 (≈ 17.8 to 178 µM)	10 to 100 (≈ 17.8 to 178 µM)	≤ 1	≤ 1	≤ 1	≤ 1	≤ 1	≤ 1	≤ 1	≤ 1	≤ 1	≤ 1	≤ 1	≤ 1	≤ 1	≤ 1	≤ 1	IC [9, 18]: ≤ 1 µg/mL; IC [9, 19]: ≤ 1 µg/mL; MIC [10]: 1 to 10 µg/mL (≈ 1.78 to 17.8 µM); IC ([10]; Pasteurella piscicida KP94-04): ≤10 (10-1 µg/ml); IC ([10]; Pasteurella piscicida KP94-05): ≤10 (10-1 µg/ml); IC ([10]; Pasteurella piscicida KP94-06): ≤10 (10-1 µg/ml)
CC(Oc1cc(Cl)cc(Oc2ccc(C(F)(F)F)cc2Cl)c1)C(=O)C(C#N)c1cccc(Br)c1 (centres unmarked) [compound 213]	1 to 10 (≈ 1.74 to 17.4 µM)	1 to 10 (≈ 1.74 to 17.4 µM)	1 to 10 (≈ 1.74 to 17.4 µM)	10 to 100 (≈ 17.4 to 174 µM)	10 to 100 (≈ 17.4 to 174 µM)	1 to 10 (≈ 1.74 to 17.4 µM)	≤ 1	≤ 1	≤ 1	1 to 10 (≈ 1.74 to 17.4 µM)	1 to 10 (≈ 1.74 to 17.4 µM)	≤ 1	≤ 1	≤ 1	≤ 1	≤ 1	≤ 1	≤ 1	≤ 1	≤ 1	IC [9, 18]: ≤ 1 µg/mL; IC [9, 19]: ≤ 1 µg/mL; MIC [10]: 1 to 10 µg/mL (≈ 1.74 to 17.4 µM); IC ([10]; Pasteurella piscicida KP94-04): ≤10 (10-1 µg/ml); IC ([10]; Pasteurella piscicida KP94-05): ≤10 (10-1 µg/ml); IC ([10]; Pasteurella piscicida KP94-06): ≤10 (10-1 µg/ml)

— patent EP0768085A1, “ANTIBACTERIAL AGENT” (DAIICHI PHARMACEUTICAL CO., LTD., priority 1994, dated 1996)
